Among the data in patent US20080221086A1, “Novel Inhibitors of Glutaminyl Cyclase” (PROBIODRUG AG, priority 2006, published 2008) are IC50 values, retold here.

Sequence of hQC (Q16769 29-361): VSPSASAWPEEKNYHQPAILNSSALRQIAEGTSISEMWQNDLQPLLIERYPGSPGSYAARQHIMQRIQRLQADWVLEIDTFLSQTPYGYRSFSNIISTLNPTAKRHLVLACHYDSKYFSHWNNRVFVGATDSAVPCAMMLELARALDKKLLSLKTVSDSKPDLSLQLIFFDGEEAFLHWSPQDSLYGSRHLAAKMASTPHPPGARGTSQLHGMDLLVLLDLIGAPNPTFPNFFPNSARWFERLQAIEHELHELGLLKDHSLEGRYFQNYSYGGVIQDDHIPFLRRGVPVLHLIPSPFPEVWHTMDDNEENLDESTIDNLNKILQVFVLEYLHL

In the first assay the target is hQC (Homo sapiens, UniProt Q16769). Put plainly: Fluorometric assay of glutaminyl cyclase (QC) inhibition, H-Gln-βNA or H-Gln-AMC substrate. The format is biochemical. The note with it: compound from preparative synthesis, purified by chromatography; fluorescent assay; read-out: IC50 hQC. The method in brief:
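Fluorometric coupled assays at 30° C in Tris/HCl pH 8.0 with EDTA and pyroglutamyl aminopeptidase used either 0.2 mM H-Gln-βNA (320/410 nm) or H-Gln-AMC (380/460 nm), started by QC. Screening used 4 mM inhibitor at substrate 1 KM. Ki came from fitting progress curves to competitive inhibition.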
Consider `O=C1N/C(=N\CCc2c[nH]c3ccccc23)C(c2cccc(F)c2F)N1CCCn1ccnc1` (stereo not shown) [Compound 52, 5-(2,3-Difluoro-phenyl)-1-(3-imidazol-1-yl-propyl)-4-(2-(1H-indol-3-yl)-ethylimino)-imidazolidin-2-one], for which the IC50 was determined as 0.626 µM.

The assay is the same for the next values; noted with them: read-out: IC50.
Consider `Cc1cccc(C2/C(=N/c3cc(Cl)ccc3Cl)NC(=S)N2c2ccc3[nH]cnc3c2)c1` (stereo not shown) [Compound 299, 1-(1H-Benzoimidazol-5-yl)-4-2,5-dichloro-phenylimino-5-m-tolyl-imidazolidine-2-thione], for which the IC50 was determined as 7.6 µM. Still for that read-out and setting: the value for `O=C1N/C(=N\C2CCCCCC2)C(C2CCOC2)N1c1ccc2[nH]cnc2c1` (stereo not shown) [Compound 205, 1-(1H-Benzoimidazol-5-yl)-4-cycloheptylimino-5-(tetrahydro-furan-3-yl)-imidazolidin-2-one] was 9.4 µM; that for `O=C1N/C(=N\C(c2ccccc2)c2ccccc2)C(CO)N1CCCn1ccnc1` (stereo not shown) [Compound 85, 4-Benzhydrylimino-5-hydroxymethyl-1-(3-imidazol-1-yl-propyl)-imidazolidin-2-one] was 6.7 µM. Still for that read-out and setting: to `O=C(C/N=C1/NC(=O)N(c2ccc3nc[nH]c3c2)C1c1cc2c(cc1Br)OCO2)N1CCSCC1` (stereo not shown) [Compound 201, 1-(3H-Benzoimidazol-5-yl)-5-(6-bromo-benzo1,3dioxol-5-yl)-4-2-oxo-2-thiomorpholin-4-yl-ethylimino-imidazolidin-2-one] belongs 4 µM; to `S=C1N/C(=N/Cc2ccc3[nH]ccc3c2)C(c2cc(Br)cc(Br)c2)N1c1ccc2nc[nH]c2c1` (stereo not shown) [Compound 132, 1-(3H-Benzoimidazol-5-yl)-5-(3,5-dibromo-phenyl)-4-1H-indol-5-ylmethylimino-imidazolidine-2-thione], 4.9 µM. The same measure, in the same setting: to `O=C1N/C(=N\C2CCCc3ccccc32)C(c2cc(Br)cs2)N1c1ccc2nc[nH]c2c1` (stereo not shown) [Compound 236, 1-(3H-Benzoimidazol-5-yl)-5-(4-bromo-thiophen-2-yl)-4-1,2,3,4-tetrahydro-naphthalen-1-ylimino-imidazolidin-2-one] belongs 2.2 µM; to `O=C(C/N=C1\NC(=S)N(c2ccc3[nH]cnc3c2)C1c1cc2ccccc2s1)N1CCSCC1` (stereo not shown) [Compound 207, 2-(5-(benzo[b]thiophen-2-yl)-1-(1H-benzo[d]imidazol-5-yl)-2-thioxoimidazolidin-4-ylideneamino)-1-thiomorpholinoethan-one], 4 µM; to `O=C(C/N=C1\NC(=S)N(c2ccc3[nH]cnc3c2)C1c1cc2c(cc1Br)OCO2)NN1CCCCC1` (stereo not shown) [Compound 143], 2.2 µM. As to `S=C1N/C(=N\C2CCCC2)C(c2ccc3ccccc3c2)N1c1ccc2[nH]cnc2c1` (stereo not shown) [Compound 256, 1-(1H-Benzoimidazol-5-yl)-4-cyclopentylimino-5-naphthalen-2-yl-imidazolidine-2-thione], the IC50 was 9.4 µM. On the same count and under the same terms, to `C/N=C1/NC(=O)N(c2ccc3[nH]cnc3c2)C1c1ccc2ccccc2c1` (stereo not shown) [Compound 159, 1-(1H-Benzoimidazol-5-yl)-4-methylimino-5-naphthalen-2-yl-imidazolidin-2-one] belongs 0.004 µM; to `O=C1N/C(=N/CCc2cccs2)C(c2ccc(O)cc2)N1CCCn1ccnc1` (stereo not shown) [Compound 45, 5-(4-Hydroxy-phenyl)-1-(3-imidazol-1-yl-propyl)-4-2-thiophen-2-yl-ethylimino-imidazolidin-2-one], 4.9 µM. Same read-out and setting: to `O=C1N/C(=N\C(c2ccccc2)c2ccccc2)C(c2cccc(F)c2)N1CCCn1ccnc1` (stereo not shown) [Compound 88, 4-Benzhydrylimino-5-(3-fluoro-phenyl)-1-(3-imidazol-1-yl-propyl)-imidazolidin-2-one] belongs 5.8 µM; to `O=C(C/N=C1/NC(=O)N(c2ccc3[nH]cnc3c2)C1c1ccc(Br)cc1)N1CCSCC1` (stereo not shown) [Compound 208, 1-(1H-Benzoimidazol-5-yl)-5-(4-bromo-phenyl)-4-2-oxo-2-thiomorpholin-4-yl-ethylimino-imidazolidin-2-one], 4 µM. Still for that read-out and setting: to `CN1CCCN(C(=O)C/N=C2/NC(=O)N(c3ccc4[nH]cnc4c3)C2c2ccc3c(c2)OCCO3)CC1` (stereo not shown) [Compound 306, 1-(1H-Benzoimidazol-5-yl)-5-(2,3-dihydro-benzo1,4dioxin-6-yl)-4-2-(4-methyl-1,4diazepan-1-yl)-2-oxo-ethylimino-imidazolidin-2-one] belongs 2.2 µM; to `COC(=O)C(C)/N=C1\NC(=O)N(c2ccc3[nH]cnc3c2)C1C1CCC(C)=CC1C` (stereo not shown) [Compound 206, Methyl 2-(1-(1H-benzo[d]imidazol-5-yl)-5-(2,4-dimethylcyclohex-3-enyl)-2-oxoimidazolidin-4-ylideneamino)propanoate], 7.6 µM; to `O=C1N/C(=N/CCc2c[nH]c3ccccc23)C(C2CC2)N1CCCn1ccnc1` (stereo not shown) [Compound 57, 5-Cyclopropyl-1-(3-imidazol-1-yl-propyl)-4-2-(1H-indol-3-yl)-ethylimino-imidazolidin-2-one], 5.8 µM. As to `O=C1N/C(=N\CCc2c[nH]c3ccccc23)C(c2cccc(F)c2F)N1CCCn1ccnc1` (stereo not shown) [Compound 52, 5-(2,3-Difluoro-phenyl)-1-(3-imidazol-1-yl-propyl)-4-(2-(1H-indol-3-yl)-ethylimino)-imidazolidin-2-one], the IC50 was 2.2 µM. Still for that read-out and setting: to `O=C1N/C(=N\C(c2ccccc2)c2ccccc2)C(c2ccccc2)N1CCCn1ccnc1` (stereo not shown) [Compound 81, 4-Benzhydrylimino-1-(3-imidazol-1-yl-propyl)-5-phenyl-imidazolidin-2-one] belongs 5.8 µM. The same measure, in the same setting: the value for `O=C(C/N=C1\NC(=O)N(c2ccc3[nH]cnc3c2)C1c1c(F)ccc(Cl)c1F)N1CCCC(O)C1` (stereo not shown) [Compound 154, 1-(1H-Benzoimidazol-5-yl)-5-(3-chloro-2,6-difluoro-phenyl)-4-2-(3-hydroxy-piperidin-1-yl)-2-oxo-ethylimino-imidazolidin-2-one] was 0.4 µM; that for `CC1=CC(C)C(C2C(=NCC(=O)N3CCSCC3)NC(=O)N2c2ccc3[nH]cnc3c2)CC1` (stereo not shown) [Compound 294, 1-(1H-Benzoimidazol-5-yl)-5-(2,4-dimethyl-cyclohex-3-enyl)-4-2-oxo-2-thiomorpholin-4-yl-ethylimino-imidazolidin-2-one] was 1.3 µM. Still for that read-out and setting: the value for `O=C1N/C(=N/Cc2ccc(Cl)cc2)C(c2ccccc2)N1CCCn1ccnc1` (stereo not shown) [Compound 18, 4-4-Chloro-benzylimino-1-(3-imidazol-1-yl-propyl)-5-phenyl-imidazolidin-2-one] was 5.8 µM; that for `O=C1N/C(=N/Cc2ccc(Cl)cc2)C(c2ccc(Cl)c(F)c2)N1CCCn1ccnc1` (stereo not shown) [Compound 20, 4-4-Chloro-benzylimino-5-(4-chloro-3-fluoro-phenyl)-1-(3-imidazol-1-yl-propyl)-imidazolidin-2-one] was 7.6 µM; that for `O=C(C/N=C1\NC(=O)N(c2ccc3[nH]cnc3c2)C1c1ccnc2ccccc12)N1CCC(O)CC1` (stereo not shown) [Compound 343, 1-(1H-Benzoimidazol-5-yl)-4-2-(4-hydroxy-piperidin-1-yl)-2-oxo-ethylimino-5-quinolin-4-yl-imidazolidin-2-one] was 6.7 µM.

`Fc1ccc(Cl)c(F)c1C1/C(=N/c2c(Cl)cccc2Cl)NC(=S)N1c1ccc2nc[nH]c2c1` (stereo not shown) [Compound 188, 1-(3H-Benzoimidazol-5-yl)-5-(3-chloro-2,6-difluoro-phenyl)-4-2,6-dichloro-phenylimino-imidazolidine-2-thione]: the IC50 was determined as 6.7 µM. On to `COC(=O)C(C)/N=C1\NC(=O)N(c2ccc3[nH]cnc3c2)C1c1ccccc1` (stereo not shown) [Compound 234, Methyl 2-(1-(1H-benzo[d]imidazol-5-yl)-2-oxo-5-phenylimidazolidin-4-ylideneamino)propanoate], for which the IC50 was 7.6 µM.

Take `O=C1N/C(=N\C2CCCc3ccccc32)C(c2c(F)ccc(Cl)c2F)N1c1ccc2nc[nH]c2c1` (stereo not shown) [Compound 228, 1-(3H-Benzoimidazol-5-yl)-5-(3-chloro-2,6-difluoro-phenyl)-4-1,2,3,4-tetrahydro-naphthalen-1-ylimino-imidazolidin-2-one]: the IC50 is 0.004 µM. The same measure, in the same setting: the value for `COC(=O)C(C)/N=C1\NC(=S)N(c2ccc3[nH]cnc3c2)C1c1ccc(C)cc1` (stereo not shown) [Compound 249, Methyl 2-(1-(1H-benzo[d]imidazol-5-yl)-2-thioxo-5-p-tolylimidazolidin-4-ylideneamino)propanoate] was 5.8 µM; that for `O=C1N/C(=N/CCc2c[nH]c3ccccc23)C(c2ccccc2)N1CCCn1ccnc1` (stereo not shown) [Compound 49, 1-(3-Imidazol-1-yl-propyl)-4-2-(1H-indol-3-yl)-ethylimino-5-phenyl-imidazolidin-2-one] was 4.9 µM. As to `O=C1N/C(=N/Cc2ccc(Cl)cc2)C(c2cc(F)cc(F)c2)N1CCCn1ccnc1` (stereo not shown) [Compound 19, 4-4-Chloro-benzylimino-5-(3,5-difluoro-phenyl)-1-(3-imidazol-1-yl-propyl)-imidazolidin-2-one], the IC50 is 4 µM.

In the case of `O=C(CN=C1NC(=O)N(c2ccc3[nH]cnc3c2)C1c1cc2c(cc1Br)OCO2)N1CCCCC1` (stereo not shown) [Compound 327, 4-(2-Oxo-2-(piperidin-1-yl)ethylimino)-1-(1H-benzo[d]imidazol-5-yl)-5-(5-bromobenzo[d][1,3]dioxol-6-yl)imidazolidin-2-one], the IC50 was 0.004 µM. The same measure, in the same setting: to `O=C(C/N=C1/NC(=O)N(CCCn2ccnc2)C1c1ccsc1)N1CCc2ccccc2C1` (stereo not shown) [Compound 65, 4-2-(3,4-Dihydro-1H-isoquinolin-2-yl)-2-oxo-ethylimino-1-(3-imidazol-1-yl-propyl)-5-thiophen-3-yl-imidazolidin-2-one] belongs 5.8 µM; to `FC(F)(F)c1ccccc1/N=C1\NC(=S)N(c2ccc3[nH]cnc3c2)C1C1=CCCCC1` (stereo not shown) [Compound 149, 1-(1H-Benzoimidazol-5-yl)-5-cyclohex-1-enyl-4-2-trifluoromethyl-phenylimino-imidazolidine-2-thione], 6.7 µM. Same read-out and setting: the value for `Cc1ccc2occ(C3/C(=N/CCCc4ccccc4)NC(=O)N3c3ccc4[nH]cnc4c3)c(=O)c2c1` (stereo not shown) [Compound 239, 1-(1H-Benzoimidazol-5-yl)-5-(6-methyl-4-oxo-4H-chromen-3-yl)-4-(3-phenyl-propylimino)-imidazolidin-2-one] was 0.4 µM.
